Measured values taken from the supplement of paper PMC11061612.

Experiments:
Test in all cases: Bliss excess, mean over the matrix (fraction); higher = more synergy
[1] = test system: 22RV1 (Prostate Carcinoma)
How it was run: (§1)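 Cell lines in DMEM/F12 or RPMI with 10% FBS were plated in 1536-well plates, held 24 hours at 37°C, 5% CO2, then given two-drug dose matrices for 72 hours (DMSO typically 0.2%). Viability was read by CellTiter-Glo 2.0 luminescence and scaled as inhibition from 0 (vehicle wells) to 1 (blank wells). Combination Emax is the second-highest inhibition in the matrix; Bliss excess is observed combination effect minus expected EA + EB − EA·EB, EA and EB being single-agent effects.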

[2] = test system: DMS-53 (Small Cell Lung Carcinoma)
How it was run: as §1

[3] = test system: MDA-MB-436 (Breast Carcinoma)
How it was run: as §1

[4] = test system: EPLC-272H (Other Solid Carcinomas)
How it was run: as §1

[5] = test system: CGTH-W-1 (Thyroid Gland Carcinoma)
How it was run: as §1

[6] = test system: EW-7 (Ewing's Sarcoma)
How it was run: as §1

[7] = test system: WM1552C (Melanoma)
How it was run: as §1

[8] = test system: RH-41 (Rhabdomyosarcoma)
How it was run: as §1

[9] = test system: EW-16 (Ewing's Sarcoma)
How it was run: as §1

[10] = test system: JIMT-1 (Breast Carcinoma)
How it was run: as §1

[11] = test system: HCC70 (Breast Carcinoma)
How it was run: as §1

[12] = test system: G-402 (Other Solid Carcinomas)
How it was run: as §1

[13] = test system: LU-165 (Small Cell Lung Carcinoma)
How it was run: as §1

[14] = test system: HT55 (Colorectal Carcinoma)
How it was run: as §1

[15] = test system: CAL-27 (Oral Cavity Carcinoma)
How it was run: as §1

[16] = test system: HCC1395 (Breast Carcinoma)
How it was run: as §1

[17] = test system: huH-1 (Hepatocellular Carcinoma)
How it was run: as §1

[18] = test system: AU565 (Breast Carcinoma)
How it was run: as §1

[19] = test system: NCI-H2087 (Lung Adenocarcinoma)
How it was run: as §1

[20] = test system: HCC1428 (Breast Carcinoma)
How it was run: as §1

Row | Structure (SMILES) | Bliss excess [1] | Bliss excess [2] | Bliss excess [3] | Bliss excess [4] | Bliss excess [5] | Bliss excess [6] | Bliss excess [7] | Bliss excess [8] | Bliss excess [9] | Bliss excess [10] | Bliss excess [11] | Bliss excess [12] | Bliss excess [13] | Bliss excess [14] | Bliss excess [15] | Bliss excess [16] | Bliss excess [17] | Bliss excess [18] | Bliss excess [19] | Bliss excess [20]
1 | CCN(CCO)CCCOc1ccc2c(Nc3cc(CC(=O)Nc4cccc(F)c4)[nH]n3)ncnc2c1 [AZD2811] + O=C(c1cc(Cc2n[nH]c(=O)c3ccccc23)ccc1F)N1CCN(C(=O)C2CC2)CC1 [Olaparib] (first compound max 1 µM, 7x7, partner max 10 µM) | 0.0017 | -0.014 | -0.0533 | 0.0042 | 0.008 | 0.0067 | -0.027 | 0.0053 | 0.0661 | -0.0127 | -0.0249 | -0.0281 | -0.0454 | 0.0248 | 0.0484 | -0.0546 | -0.0014 | -0.011 | 0.0128 | -0.0081
2 | CN(CCO)CC[C@H](CSc1ccccc1)Nc1ccc(S(=O)(=O)NC(=O)c2ccc(N3CCC([C@@H](O)c4ccccc4-c4ccc(Cl)cc4)CC3)cc2)cc1S(=O)(=O)C(F)(F)F [AZD4320] + CN(C)CCCOc1ccc(-c2ccc3ncc4c(c3c2)n(C2CCOCC2)c(=O)n4C)cn1 [AZD0156] (first compound max 1 µM, 7x7, partner max 1 µM) | -0.0416 | 0.0316 | -0.0496 | 0.0102 | -0.0346 | 0.0524 | -0.0282 | -0.0265 | -0.003 | -0.0344 | -0.0321 | -0.0458 | -0.025 | -0.0158 | -0.0136 | -0.0269 | -0.0419 | 0.0203 | -0.0496 | 0.0307
3 | COc1nnc2ccc(N3CCC(c4ccc(OCCN5CCN(C)C(=O)[C@H]5C)cc4)CC3)nn12 [AZD5153] + C=CCn1c(=O)c2cnc(Nc3ccc(N4CCN(C)CC4)cc3)nc2n1-c1cccc(C(C)(C)O)n1 [AZD1775] (first compound max 1 µM, partner max 1 µM) | 0.0047 | 0.0269 | -0.0783 | -0.0939 | 0.0137 | -0.0403 | -0.0776 | 0.0035 | -0.037 | -0.0054 | -0.0339 | -0.0226 | 0.0026 | -0.0112 | -0.0481 | -0.113 | 0.024 | -0.0144 | -0.0368 | -0.0221
4 | COc1nnc2ccc(N3CCC(c4ccc(OCCN5CCN(C)C(=O)[C@H]5C)cc4)CC3)nn12 [AZD5153] + CC1(C)CCC(CN2CCN(c3ccc(C(=O)NS(=O)(=O)c4ccc(NCC5CCOCC5)c([N+](=O)[O-])c4)c(Oc4cnc5[nH]ccc5c4)c3)CC2)=C(c2ccc(Cl)cc2)C1 [Venetoclax] (first compound max 1 µM, 7x7, partner max 1 µM) | -0.0308 | -0.0406 | -0.0572 | -0.0378 | -0.0407 | -0.0122 | -0.0691 | 0.0374 | -0.0593 | -0.0629 | -0.0013 | -0.0478 | -0.0522 | -0.0387 | -0.0394 | -0.0241 | -0.0962 | 0.0002 | -0.0427 | -0.0592
5 | COc1nnc2ccc(N3CCC(c4ccc(OCCN5CCN(C)C(=O)[C@H]5C)cc4)CC3)nn12 [AZD5153] + CCN(CCO)CCCOc1ccc2c(Nc3cc(CC(=O)Nc4cccc(F)c4)[nH]n3)ncnc2c1 [AZD2811] (first compound max 1 µM, 7x7, partner max 1 µM) | -0.0252 | 0.0175 | -0.0214 | -0.0387 | 0.0228 | 0.0274 | -0.0615 | 0.021 | 0.0068 | -0.0113 | -0.0734 | -0.0728 | -0.06 | -0.0479 | -0.127 | -0.0005 | 0.0201 | -0.0016 | -0.0645 | -0.0173
6 | COc1nnc2ccc(N3CCC(c4ccc(OCCN5CCN(C)C(=O)[C@H]5C)cc4)CC3)nn12 [AZD5153] + C[C@@H]1COCCN1C2=NC(=NC(=C2)C3(CC3)[S@](=N)(=O)C)C4=C5C=CNC5=NC=C4 [AZD6738] (first compound max 1 µM, 7x7, partner max 10 µM) | -0.0019 | 0.037 | -0.0104 | -0.0629 | 0.0604 | 0.034 | -0.0783 | 0.0514 | 0.0667 | 0.0465 | 0.015 | 0.0025 | -0.0048 | 0.0392 | 0.0095 | -0.0241 | 0.031 | 0.009 | 0.0404 | 0.0209
7 | COc1nnc2ccc(N3CCC(c4ccc(OCCN5CCN(C)C(=O)[C@H]5C)cc4)CC3)nn12 [AZD5153] + Cc1c2c(nn1C)CSCc1cc(n(C)n1)CSc1cc(c3ccccc3c1)OCCCc1c(C(=O)O)n(C)c3c-2c(Cl)ccc13 [AZD5991] (first compound max 1 µM, 7x7, partner max 1 µM) | 0.0107 | 0.007 | -0.0167 | -0.026 | -0.025 | 0.07 | -0.0694 | 0.012 | -0.0412 | 0.0155 | 0.0638 | 0.044 | -0.0173 | -0.0445 | -0.056 | -0.0112 | 0.0196 | -0.0342 | -0.0328 | -0.0587
8 | COc1nnc2ccc(N3CCC(c4ccc(OCCN5CCN(C)C(=O)[C@H]5C)cc4)CC3)nn12 [AZD5153] + Cn1cnc2c(F)c(Nc3ccc(Br)cc3Cl)c(C(=O)NOCCO)cc21 [Selumetinib] (first compound max 1 µM, 7x7, partner max 10 µM) | 0.0239 | -0.0043 | -0.0275 | 0.0173 | -0.0059 | -0.032 | -0.063 | -0.0176 | -0.0456 | -0.0082 | 0.0982 | -0.0421 | -0.0494 | 0.0584 | -0.0093 | -0.024 | -0.0102 | 0.0278 | -0.0192 | 0.0137
9 | Cc1c2c(nn1C)CSCc1cc(n(C)n1)CSc1cc(c3ccccc3c1)OCCCc1c(C(=O)O)n(C)c3c-2c(Cl)ccc13 [AZD5991] + C1CN(CCC1(C(=O)N[C@@H](CCO)C2=CC=C(C=C2)Cl)N)C3=NC=NC4=C3C=CN4 [Capivasertib] (first compound max 1 µM, 7x7, partner max 3 µM) | 0.0404 | 0.0168 | -0.0204 | 0.0341 | 0.0091 | 0.0459 | -0.004 | -0.0334 | -0.0456 | -0.0056 | 0.0761 | 0.0445 | 0.0034 | -0.0129 | 0.0073 | -0.003 | -0.0149 | 0.0218 | -0.0295 | 0.0136
10 | Cc1c2c(nn1C)CSCc1cc(n(C)n1)CSc1cc(c3ccccc3c1)OCCCc1c(C(=O)O)n(C)c3c-2c(Cl)ccc13 [AZD5991] + C=CCn1c(=O)c2cnc(Nc3ccc(N4CCN(C)CC4)cc3)nc2n1-c1cccc(C(C)(C)O)n1 [AZD1775] (first compound max 1 µM, partner max 1 µM) | -0.003 | 0.0326 | 0.0087 | 0.0188 | 0.005 | 0.0015 | -0.0651 | 0.0029 | -0.0392 | 0.0464 | 0.0278 | 0.051 | 0.0112 | 0.0215 | -0.0508 | -0.0172 | -0.0405 | 0.0127 | -0.0067 | -0.0407
11 | Cc1c2c(nn1C)CSCc1cc(n(C)n1)CSc1cc(c3ccccc3c1)OCCCc1c(C(=O)O)n(C)c3c-2c(Cl)ccc13 [AZD5991] + CC1(C)CCC(CN2CCN(c3ccc(C(=O)NS(=O)(=O)c4ccc(NCC5CCOCC5)c([N+](=O)[O-])c4)c(Oc4cnc5[nH]ccc5c4)c3)CC2)=C(c2ccc(Cl)cc2)C1 [Venetoclax] (first compound max 1 µM, 7x7, partner max 1 µM) | -0.0149 | 0.159 | -0.0513 | -0.015 | -0.012 | 0.0249 | -0.115 | 0.0582 | -0.0326 | -0.0155 | 0.0042 | -0.0461 | -0.014 | -0.0244 | -0.0081 | -0.019 | -0.0534 | 0.0115 | -0.0304 | 0.0221
12 | Cc1c2c(nn1C)CSCc1cc(n(C)n1)CSc1cc(c3ccccc3c1)OCCCc1c(C(=O)O)n(C)c3c-2c(Cl)ccc13 [AZD5991] + CCN(CCO)CCCOc1ccc2c(Nc3cc(CC(=O)Nc4cccc(F)c4)[nH]n3)ncnc2c1 [AZD2811] (first compound max 1 µM, 7x7, partner max 1 µM) | -0.0004 | 0.0525 | -0.0406 | 0.0705 | 0.0439 | 0.198 | -0.0095 | 0.0183 | 0.117 | 0.0203 | -0.0219 | 0.0271 | -0.025 | 0.0472 | 0.0403 | 0.0432 | 0.024 | 0.0367 | -0.0144 | 0.0469
13 | Cc1c2c(nn1C)CSCc1cc(n(C)n1)CSc1cc(c3ccccc3c1)OCCCc1c(C(=O)O)n(C)c3c-2c(Cl)ccc13 [AZD5991] + C[C@@H]1COCCN1C2=NC(=NC(=C2)C3(CC3)[S@](=N)(=O)C)C4=C5C=CNC5=NC=C4 [AZD6738] (first compound max 1 µM, 7x7, partner max 10 µM) | 0.0449 | 0.0165 | -0.0031 | 0.0151 | 0.0117 | 0.0266 | -0.0084 | 0.014 | -0.0304 | 0.0789 | -0.0069 | 0.0386 | 0.0012 | 0.0901 | 0.0358 | 0.0307 | -0.0302 | 0.0006 | -0.0396 | -0.0045
14 | Cc1c2c(nn1C)CSCc1cc(n(C)n1)CSc1cc(c3ccccc3c1)OCCCc1c(C(=O)O)n(C)c3c-2c(Cl)ccc13 [AZD5991] + Cc1cc2ncnn2cc1Nc1ncc2c(n1)n(C1CCOCC1)c(=O)n2C [AZD7648] (first compound max 1 µM, 7x7, partner max 10 µM) | -0.0528 | 0.0011 | -0.042 | -0.0575 | -0.0214 | -0.0105 | -0.0762 | -0.0443 | -0.0174 | -0.0541 | -0.052 | 0.0229 | 0.0045 | -0.0152 | -0.057 | -0.0497 | -0.0224 | -0.0172 | -0.0221 | 0.0018
